Numbered stars: 1 amine (or outer) side, 2 acyl side, 3 side chain; on linkers, the order of the positions; unused ones are H or OH. Bridge positions count the residues as written; N and C are the ends. Square brackets hold non-standard residues; d marks the D form. Peptide text beside a SMILES is read from it. * marks the point of attachment. ξ: configuration not given here. X15 = COC(=O)c1ccc(NS(=O)(=O)NC(=O)C[C@H](N[*:1])C(=O)[*:2])cc1; Bip(4'-COOH) = N[C@@H](Cc1ccc(-c2ccc(C(=O)O)cc2)cc1)C(=O)O; Bip(4'-NHAc) = CC(=O)Nc1ccc(-c2ccc(C[C@H](N)C(=O)O)cc2)cc1; Phe(3-CF3) = N[C@@H](Cc1cccc(C(F)(F)F)c1)C(=O)O; Ala(morpholin-4-yl) = N[C@@H](CN1CCOCC1)C(=O)O; Phe(4-CONH2) = NC(=O)c1ccc(C[C@H](N)C(=O)O)cc1; Phe(4-COOH) = N[C@@H](Cc1ccc(C(=O)O)cc1)C(=O)O; Bip = N[C@@H](Cc1ccc(-c2ccccc2)cc1)C(=O)O; Phe(3-Me) = Cc1cccc(C[C@H](N)C(=O)O)c1; 2Nal = N[C@@H](Cc1ccc2ccccc2c1)C(=O)O; X34 = O=C([C@H](Cc1ccoc1)N[*:1])[*:2]; Val(3-OH) = CC(C)(O)[C@H](N)C(=O)O; Cha = N[C@@H](CC1CCCCC1)C(=O)O; Ile(3ξ) = CCC(C)[C@H](N)C(=O)O; Thr(3ξ) = CC(O)[C@H](N)C(=O)O; Carboxymethyl = O=C(O)C*; NMeA = CN[C@@H](C)C(=O)O; Orn = NCCC[C@H](N)C(=O)O; Dab = NCC[C@H](N)C(=O)O
Biological target: T1, Alexa fluor-647 labeled human PD-L1-Ig binding to Jurkat cell line over-expressing human PD-1 (Homo sapiens, UniProt Q15116)
T1 construct: expressed in transfected cells; host or cells: Jurkat
Assay: Jurkat-PD-1 Cell Binding High-Content Screening Assay (CBA): Method 3 (Alexa fluor-647 labeled PD-L1-Ig)
Conditions: Jurkat-PD-1 cells, Alexa fluor-647 labeled PD-L1-Ig 177 nM; head μM; read-out: CBA Method 3 μM
Description: Jurkat-PD-1 Cell Binding High-Content Screening Assay (CBA): Method 3
Alexa fluor-647 was covalently linked to the Ig epitope tag of human PD-L1-Ig and fluorescently labeled PD-L1-Ig was used for the binding studies with a Jurkat cell line over-expressing human PD-1. Briefly, 2.5×10^4 Jurkat-hPD-1 cells were seeded into 384 well plates in 20 μl of RPMI supplemented with 10% fetal calf serum. 12.5 nl of compound was added to cells followed by incubation at 37° C. for 2 hours. Then, 10 ul of Alexa fluor-647 labeled PD-L1-Ig (177 nM final), diluted in RPMI supplemented with 10% fetal calf serum was added to the cells and incubated for 1 hour. Cells were then fixed with 4% paraformaldehyde containing 10 μg/ml Hoechst 33342 and then washed 3× in 100 ul PBS and 100 ul of PBS was added in the final step. Data was collected using the Operetta High Content Imager and the data was analyzed using the columbus software.

T1 sequence (Q15116 25-288): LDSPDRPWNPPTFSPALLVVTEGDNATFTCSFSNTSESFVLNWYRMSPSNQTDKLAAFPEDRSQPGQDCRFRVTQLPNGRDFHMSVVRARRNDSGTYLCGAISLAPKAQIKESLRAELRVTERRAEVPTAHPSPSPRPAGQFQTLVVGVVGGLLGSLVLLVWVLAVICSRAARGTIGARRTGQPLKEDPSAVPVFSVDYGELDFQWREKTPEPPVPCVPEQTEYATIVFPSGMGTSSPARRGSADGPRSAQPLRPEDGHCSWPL

| SMILES | IC50 [µM] |
| --- | --- |
| CC(=O)Nc1ccc(-c2ccc(C[C@@H]3NC(=O)[C@H](Cc4cccc(C)c4)NC(=O)[C@H](CC(=O)O)NC(=O)[C@H](Cc4ccc(-c5ccc(C(=O)O)cc5)cc4)NC(=O)[C@H](CN4CCOCC4)NC(=O)CSC[C@@H](C(=O)N[C@@H](CCN)C(N)=O)NC(=O)[C@H](CCC(=O)O)NC(=O)[C@H](C(C)C)NC(=O)[C@H](CC4CCCCC4)NC(=O)[C@H](CCN)NC(=O)[C@@H](CC(C)C)NC(=O)[C@H](C)N(C)C(=O)[C@H](Cc4ccc(C(=O)O)cc4)NC(=O)[C@H](Cc4ccc(-c5ccccc5)cc4)NC3=O)cc2)cc1 [Example 5092] ({CH2CO}-[Ala(morpholin-4-yl)][Bip(4'-COOH)]D[Phe(3-Me)][Bip(4'-NHAc)][Bip][Phe(4-COOH)][NMeA][dL][Dab][Cha]VEC[Dab]-NH2; thioether N-14) | 0.1 |
| CC(=O)Nc1ccc(-c2ccc(C[C@@H]3NC(=O)[C@H](Cc4cccc(C(F)(F)F)c4)NC(=O)[C@H](CC(=O)O)NC(=O)[C@H](Cc4ccc(C(=O)O)cc4)NC(=O)[C@H](CC(C)C)NC(=O)CSC[C@@H](C(=O)N[C@@H](CCN)C(N)=O)NC(=O)[C@H](CCCN)NC(=O)[C@H](C(C)C)NC(=O)[C@H](CC4CCCCC4)NC(=O)[C@H](CCN)NC(=O)[C@@H](CC(C)C)NC(=O)[C@H](C)N(C)C(=O)[C@H](CCCN)NC(=O)[C@H](Cc4ccc(-c5ccccc5)cc4)NC3=O)cc2)cc1 [Example 5096] ({CH2CO}-L[Phe(4-COOH)]D[Phe(3-CF3)][Bip(4'-NHAc)][Bip][Orn][NMeA][dL][Dab][Cha]V[Orn]C[Dab]-NH2; thioether N-14) | 0.04 |

Results, then the compound that gave them:

| IC50 [µM] | SMILES |
| --- | --- |
| 0.16 | Cc1cccc(C[C@@H]2NC(=O)[C@H](CC(=O)O)NC(=O)[C@H](Cc3ccc(-c4ccc(C(=O)O)cc4)cc3)NC(=O)[C@H](CN3CCOCC3)NC(=O)CSC[C@@H](C(=O)N[C@@H](CCN)C(N)=O)NC(=O)[C@H](CCC(=O)O)NC(=O)[C@H](C(C)C)NC(=O)[C@H](CC3CCCCC3)NC(=O)[C@H](CCN)NC(=O)[C@@H](CC(C)C)NC(=O)[C@H](C)N(C)C(=O)[C@H](Cc3ccc(C(=O)O)cc3)NC(=O)[C@H](Cc3ccc(-c4ccccc4)cc3)NC(=O)[C@H](Cc3ccc(-c4ccc(C(=O)O)cc4)cc3)NC2=O)c1 [Example 5093] ({CH2CO}-[Ala(morpholin-4-yl)][Bip(4'-COOH)]D[Phe(3-Me)][Bip(4'-COOH)][Bip][Phe(4-COOH)][NMeA][dL][Dab][Cha]VEC[Dab]-NH2; thioether N-14) |
| 0.03 | CC(=O)Nc1ccc(-c2ccc(C[C@@H]3NC(=O)[C@H](Cc4cccc(C(F)(F)F)c4)NC(=O)[C@H](CC(=O)O)NC(=O)[C@H](Cc4ccc(C(=O)O)cc4)NC(=O)[C@H](CC(C)C)NC(=O)CSC[C@@H](C(=O)N[C@@H](CCN)C(N)=O)NC(=O)[C@H](CCC(=O)O)NC(=O)[C@H](C(C)C)NC(=O)[C@H](CC4CCCCC4)NC(=O)[C@H](CCN)NC(=O)[C@@H](CC(C)C)NC(=O)[C@H](C)N(C)C(=O)[C@H](CCCN)NC(=O)[C@H](Cc4ccc(-c5ccccc5)cc4)NC3=O)cc2)cc1 [Example 5094] ({CH2CO}-L[Phe(4-COOH)]D[Phe(3-CF3)][Bip(4'-NHAc)][Bip][Orn][NMeA][dL][Dab][Cha]VEC[Dab]-NH2; thioether N-14) |
| 0.02 | CC(=O)Nc1ccc(-c2ccc(C[C@@H]3NC(=O)[C@H](Cc4cccc(C(F)(F)F)c4)NC(=O)[C@H](CC(=O)O)NC(=O)[C@H](Cc4ccc(C(=O)O)cc4)NC(=O)[C@H](CCN)NC(=O)CSC[C@@H](C(=O)N[C@@H](CCN)C(N)=O)NC(=O)[C@H](CCC(N)=O)NC(=O)[C@H](C(C)C)NC(=O)[C@H](CC4CCCCC4)NC(=O)[C@H](CCN)NC(=O)[C@@H](CC(C)C)NC(=O)[C@H](C)N(C)C(=O)[C@H](Cc4ccc(C(N)=O)cc4)NC(=O)[C@H](Cc4ccc(-c5ccccc5)cc4)NC3=O)cc2)cc1 [Example 5097] ({CH2CO}-[Dab][Phe(4-COOH)]D[Phe(3-CF3)][Bip(4'-NHAc)][Bip][Phe(4-CONH2)][NMeA][dL][Dab][Cha]VQC[Dab]-NH2; thioether N-14) |

Same assay, conditions: Jurkat-PD-1 cells, Alexa fluor-647 labeled PD-L1-Ig 177 nM; nM; read-out: CBA Method 3

| IC50 [µM] | SMILES |
| --- | --- |
| 0.0061 | CC(=O)Nc1ccc(-c2ccc(C[C@@H]3NC(=O)[C@H](Cc4cccc(C(F)(F)F)c4)NC(=O)[C@H](CC(=O)O)NC(=O)[C@H](Cc4ccc(C(=O)O)cc4)NC(=O)[C@H](CC(C)C)NC(=O)CSC[C@@H](C(=O)N[C@@H](CCN)C(N)=O)NC(=O)[C@H](CC(N)=O)NC(=O)[C@H](C(C)C)NC(=O)[C@H](CC4CCCCC4)NC(=O)[C@H](CCN)NC(=O)[C@@H](CC(C)C)NC(=O)[C@H](C)N(C)C(=O)[C@H](CCCN)NC(=O)[C@H](Cc4ccc(-c5ccccc5)cc4)NC3=O)cc2)cc1 [Example 5095] ({CH2CO}-L[Phe(4-COOH)]D[Phe(3-CF3)][Bip(4'-NHAc)][Bip][Orn][NMeA][dL][Dab][Cha]VNC[Dab]-NH2; thioether N-14) |

Biological target: T2, PE-labeled human PD-L1-Ig binding to Jurkat cell line over-expressing human PD-1 (Jurkat-PD-1) (Homo sapiens, UniProt Q15116)
T2 construct: expressed in transfected cells; host or cells: Jurkat
Assay: Jurkat-PD-1 Cell Binding High-Content Screening Assay (CBA): Method 1
Conditions: Jurkat-PD-1 cells, PE-labeled PD-L1-Ig; μM; read-out: CBA Method 1 μM

T2 sequence (Q15116 25-288): as above

| IC50 [µM] | SMILES |
| --- | --- |
| 0.45 | CCC(C)[C@@H]1NC(=O)[C@H](Cc2ccc(-c3ccccc3)cc2)NC(=O)[C@H](C(C)C)NC(=O)[C@H](Cc2c[nH]c3ccccc23)NC(=O)[C@H](CC(=O)O)NC(=O)[C@H](Cc2ccc(O)cc2)NC(=O)[C@H](Cc2ccoc2)NC(=O)CSC[C@@H](C(=O)N2CCC[C@H]2C(N)=O)NC(=O)[C@H](C(C)O)NC(=O)[C@H](C(C)(C)O)NC(=O)[C@H](CC2CCCCC2)NC(=O)[C@H](CC(N)=O)NC(=O)[C@@H](CC(C)C)NC(=O)[C@H](C)N(C)C1=O (stereo partly drawn) [Example 5009] ({CH2CO}-[X34]YDWV[Bip][Ile(3ξ)][NMeA][dL]N[Cha][Val(3-OH)][Thr(3ξ)]CP-NH2; thioether N-14) |
| 0.131 | Cc1cccc(C[C@@H]2NC(=O)[C@H](CC(=O)O)NC(=O)[C@H](Cc3ccc(OCC(=O)O)cc3)NC(=O)[C@H](CN3CCOCC3)NC(=O)CSC[C@@H](C(=O)N[C@@H](CCN)C(N)=O)NC(=O)[C@H](CCCN)NC(=O)[C@H](C(C)C)NC(=O)[C@H](Cc3ccc4ccccc4c3)NC(=O)[C@H](CCN)NC(=O)[C@@H](CC(C)C)NC(=O)[C@H](C)N(C)C(=O)[C@H](CCC(N)=O)NC(=O)[C@H](Cc3ccc(-c4ccccc4)cc3)NC(=O)[C@H](Cc3ccc(C(=O)O)cc3)NC2=O)c1 [Example 5044] ({CH2CO}-[Ala(morpholin-4-yl)]Y(Carboxymethyl)D[Phe(3-Me)][Phe(4-COOH)][Bip]Q[NMeA][dL][Dab][2Nal]V[Orn]C[Dab]-NH2; thioether N-14) |
| 0.355 | COC(=O)c1ccc(NS(=O)(=O)NC(=O)C[C@@H]2NC(=O)[C@H](Cc3ccc(C(=O)O)cc3)NC(=O)[C@H](CN3CCOCC3)NC(=O)CSC[C@@H](C(=O)N[C@@H](CCN)C(N)=O)NC(=O)[C@H](CCCN)NC(=O)[C@H](C(C)C)NC(=O)[C@H](CC3CCCCC3)NC(=O)[C@H](CCN)NC(=O)[C@@H](CC(C)C)NC(=O)[C@H](C)N(C)C(=O)[C@H](CCC(N)=O)NC(=O)[C@H](Cc3ccc(-c4ccccc4)cc3)NC(=O)[C@H](Cc3ccc(C(=O)O)cc3)NC(=O)[C@H](Cc3cccc(C(F)(F)F)c3)NC2=O)cc1 [Example 5083] ({CH2CO}-[Ala(morpholin-4-yl)][Phe(4-COOH)][X15][Phe(3-CF3)][Phe(4-COOH)][Bip]Q[NMeA][dL][Dab][Cha]V[Orn]C[Dab]-NH2; thioether N-14) |

Source: US20240409585A1, “MACROCYCLIC IMMUNOMODULATORS” (priority 2021, published 2024)
